Marks after values point to notes of the source that are not given here.
Columns and labels:
[1] = test system: postmenopausal women with atrophic vaginitis; assay: Patients with vaginal pH below 5.5, Example 3; format: in vivo
Protocol: Efficacy was measured with composite scores of vaginal symptoms (dryness, soreness, and irritation) and vaginal health (secretions, epithelial integrity, surface thickness, and pH). Vaginal and urethral cytology analyses were also performed, and the vaginal maturation value was determined. Safety assessments included endometrial biopsies. […] All vaginal tablets were identical in appearance. Patients inserted 1 tablet daily for 14 days. Thereafter, patients inserted 1 tablet twice per week (Sunday and Thursday) for the remainder of the trial. Patients were to insert the tablets at the same time each day (preferably at bedtime). Patients were evaluated for efficacy and safety at Week - 4 (screening), Week 0 (baseline), and Weeks 2, 7, and 12. Investigators used a severity scale of none, mild, moderate, or severe to assess vaginal health characteristics (secretions, epithelial integrity, surface thickness, color, and pH). Severity categories were assigned ascending scores from 0 (none) to 3 (severe) for analysis. To avoid multiple endpoint issues, composite scores were defined. A composite score for vaginal health was defined as the average of the individual vaginal health characteristic scores. The composite score and the change from baseline for the composite score were examined at each time point. Differences within and between treatment groups were analyzed using an analysis of variance (ANOVA). […] Efficacy was measured with composite scores of vaginal symptoms (dryness, soreness, and irritation) and vaginal health (secretions, epithelial integrity, surface thickness, and pH). Vaginal and urethral cytology analyses were also performed, and the vaginal maturation value was determined. Safety assessments included endometrial biopsies. […] All vaginal tablets were identical in appearance. Patients inserted 1 tablet daily for 14 days. Thereafter, patients inserted 1 tablet twice per week (Sunday and Thursday) for the remainder of the trial. Patients were to insert the tablets at the same time each day (preferably at bedtime). Patients were evaluated for efficacy and safety at Week - 4 (screening), Week 0 (baseline), and Weeks 2, 7, and 12. Investigators used a severity scale of none, mild, moderate, or severe to assess vaginal health characteristics (secretions, epithelial integrity, surface thickness, color, and pH). Severity categories were assigned ascending scores from 0 (none) to 3 (severe) for analysis. To avoid multiple endpoint issues, composite scores were defined. A composite score for vaginal health was defined as the average of the individual vaginal health characteristic scores. The composite score and the change from baseline for the composite score were examined at each time point. Differences within and between treatment groups were analyzed using an analysis of variance (ANOVA).

[2] = test system: postmenopausal women with atrophic vaginitis; assay: Vaginal symptom composite score (dryness, soreness, irritation), Example 3; format: in vivo; details: scale 0-3
Protocol: Efficacy was measured with composite scores of vaginal symptoms (dryness, soreness, and irritation) and vaginal health (secretions, epithelial integrity, surface thickness, and pH). Vaginal and urethral cytology analyses were also performed, and the vaginal maturation value was determined. Safety assessments included endometrial biopsies. […] All vaginal tablets were identical in appearance. Patients inserted 1 tablet daily for 14 days. Thereafter, patients inserted 1 tablet twice per week (Sunday and Thursday) for the remainder of the trial. Patients were to insert the tablets at the same time each day (preferably at bedtime). Patients were evaluated for efficacy and safety at Week - 4 (screening), Week 0 (baseline), and Weeks 2, 7, and 12. Efficacy assessments included patient ratings of atrophic vaginitis symptoms, investigator ratings of vaginal health, and vaginal and urethral cytology. Patients used intensity ratings of none, mild, moderate, or severe to evaluate atrophic vaginitis symptoms (dryness, soreness, irritation, dyspareunia, and vaginal discharge). Intensity ratings were assigned ascending scores from 0 (none) to 3 (severe) for analysis. A composite score for atrophic vaginitis symptoms was defined as the average of the individual symptom scores for dryness, soreness, and irritation. […] The composite score and the change from baseline for the composite score were examined at each time point. Differences within and between treatment groups were analyzed using an analysis of variance (ANOVA). […] Efficacy was measured with composite scores of vaginal symptoms (dryness, soreness, and irritation) and vaginal health (secretions, epithelial integrity, surface thickness, and pH). Vaginal and urethral cytology analyses were also performed, and the vaginal maturation value was determined. Safety assessments included endometrial biopsies. […] Patients were evaluated for efficacy and safety at Week - 4 (screening), Week 0 (baseline), and Weeks 2, 7, and 12. […] Differences within and between treatment groups were analyzed using an analysis of variance (ANOVA).

FSH = assay: Serum FSH concentration (immunoradiometric assay), Example 2; format: in vivo, postmenopausal women; details: 25 µg E2; Week 12
Protocol: Maturation values of vaginal mucosal cells were assessed as an indicator of changes in the condition of the vaginal mucosa in response to treatment.
After the screening visit, patients received no study treatment during the 4-week run-in period prior to the baseline visit. […] The vaginal tablets were identical in appearance. Patients inserted 1 tablet intravaginally, once daily for the initial 2 weeks of the study and then twice per week (Sunday and Thursday) for the remaining 10 weeks. Patients were instructed to use their medication at a consistent time each day, preferably in the morning.
Upon presentation to the clinic for each visit, a vaginal cytology specimen was obtained. Patients then inserted the tablets. […] The blood samples obtained at 30 minutes before insertion, and at 6, 12, and 24 hours after insertion were also used to determine the FSH concentration via immunoradiometric assay.
Data for area under the curve and maximal concentration were converted to a logarithmic scale, and changes from first dose (at the baseline visit) in the logarithmic values were estimated using 95% confidence intervals derived from paired t-tests. […] Differences within treatment groups in FSH concentration were determined using the Wilcoxon signed rank test based on changes from baseline in mean concentrations at weeks 2 and 12. […]

SMILES: C[C@]12CC[C@@H]3c4ccc(O)cc4CC[C@H]3[C@@H]1CC[C@@H]2O [E2, 17β-estradiol]
- Patients With Vaginal pH Values Below 5.5, (%) ([1]; 10 µg E2, Week 0): (30.3) %
- Patients With Vaginal pH Values Below 5.5, n/N ([1]; 10 µg E2, Week 0): 27/89
- Patients With Vaginal pH Values Below 5.5, (%) ([1]; 10 µg E2, Week 2): (79.8)^b %
- Patients With Vaginal pH Values Below 5.5, n/N ([1]; 10 µg E2, Week 2): 67/84
- Patients With Vaginal pH Values Below 5.5, (%) ([1]; 10 µg E2, Week 7): (71.3)^c %
- Patients With Vaginal pH Values Below 5.5, n/N ([1]; 10 µg E2, Week 7): 57/80
- Patients With Vaginal pH Values Below 5.5, (%) ([1]; 10 µg E2, Week 12): (76.1)^b %
- Patients With Vaginal pH Values Below 5.5, n/N ([1]; 10 µg E2, Week 12): 54/71
- Patients With Vaginal pH Values Below 5.5, (%) ([1]; 25 µg E2, Week 0): (34.4) %
- Patients With Vaginal pH Values Below 5.5, n/N ([1]; 25 µg E2, Week 0): 31/90
- Patients With Vaginal pH Values Below 5.5, (%) ([1]; 25 µg E2, Week 2): (73.6)^a %
- Patients With Vaginal pH Values Below 5.5, n/N ([1]; 25 µg E2, Week 2): 64/87
- Patients With Vaginal pH Values Below 5.5, n/N ([1]; 25 µg E2, Week 7): 71/83
- Patients With Vaginal pH Values Below 5.5, (%) ([1]; 25 µg E2, Week 12): (79.7)^b %
- Patients With Vaginal pH Values Below 5.5, n/N ([1]; 25 µg E2, Week 12): 63/79
- percentage of patients with vaginal pH values below 5.5 ([1]; each treatment group (25 or 10 µg E2), Week 0): approximately 35%
- vaginal symptom composite score ([2]; 10 µg E2, Week 12): ~0.6
- vaginal symptom composite score ([2]; 25 µg E2, Week 12): approximately 0.5
- vaginal symptom composite score ([2]; each treatment group (25 or 10 µg E2), Week 0 (baseline)): approximately 1.9
- patients with mean FSH concentrations below 35 mIU/mL (FSH): 3 patients

From patent EP1343508B1, “USE OF AN OESTROGEN IN THE MANUFACTURE OF A COMPOSITION CONTAINING OESTROGEN FOR THE TREATMENT OF ATROPHIC VAGINITIS” (Novo Nordisk Femcare AG, priority 2000, dated 2002)
